In PubChem BioAssay AID248 (DTP/NCI, 2004):
Inconclusive results and toxic doses are left out. Cut-off read from the data, not from the text of the source: active = T/C of 150% or more; inactive = T/C below 125%. Peptide text beside a SMILES is read from it. * marks the point of attachment. Cbz = O=C(OCc1ccccc1)*

System: L1210 leukemia ip in BDF1 mice, survival T/C
Assay: NCI In Vivo Anticancer Drug Screen. Data for tumor model L1210 Leukemia (intraperitoneal) in B6D2F1 (BDF1) mice
Conditions: endpoint: mean survival time, higher = longer survival
How it was run: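 Value reflects the ratio of survival in compound-treated mice to survival in vehicle-treated controls, with both groups carrying the same transplanted tumor.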

[1] = dose: 100.0 mg/kg/injection, schedule: Q01DX009 (ip), vehicle: Klucel (hydroxypropylcellulose) (HPC)
[2] = dose: 200.0 mg/kg/injection, schedule: Q01DX009 (ip), vehicle: Klucel (hydroxypropylcellulose) (HPC)
[3] = dose: 100.0 mg/kg/injection, schedule: Q04DX003 (ip), vehicle: Klucel (hydroxypropylcellulose) (HPC)
[4] = dose: 200.0 mg/kg/injection, schedule: Q04DX003 (ip), vehicle: Klucel (hydroxypropylcellulose) (HPC)
[5] = dose: 400.0 mg/kg/injection, schedule: Q04DX003 (ip), vehicle: Klucel (hydroxypropylcellulose) (HPC)
[6] = dose: 100.0 mg/kg/injection, schedule: Q01DX001 (ip), vehicle: Klucel (hydroxypropylcellulose) (HPC)
[7] = dose: 200.0 mg/kg/injection, schedule: Q01DX001 (ip), vehicle: Klucel (hydroxypropylcellulose) (HPC)
[8] = dose: 400.0 mg/kg/injection, schedule: Q01DX001 (ip), vehicle: Klucel (hydroxypropylcellulose) (HPC)
[9] = dose: 100.0 mg/kg/injection, schedule: Q04DX002 (ip), vehicle: Klucel (hydroxypropylcellulose) (HPC)
[10] = dose: 200.0 mg/kg/injection, schedule: Q04DX002 (ip), vehicle: Klucel (hydroxypropylcellulose) (HPC)
[11] = dose: 400.0 mg/kg/injection, schedule: Q04DX002 (ip), vehicle: Klucel (hydroxypropylcellulose) (HPC)
[12] = dose: 100.0 mg/kg/injection, schedule: Q01DX001 (ip), vehicle: saline
[13] = dose: 200.0 mg/kg/injection, schedule: Q01DX001 (ip), vehicle: saline
[14] = dose: 400.0 mg/kg/injection, schedule: Q01DX001 (ip), vehicle: saline
[15] = dose: 100.0 mg/kg/injection, schedule: Q04DX003 (ip), vehicle: saline
[16] = dose: 200.0 mg/kg/injection, schedule: Q04DX003 (ip), vehicle: saline
[17] = dose: 400.0 mg/kg/injection, schedule: Q04DX003 (ip), vehicle: saline

Measured: T/C

CCCCCn1c(C)cc(/C=C\c2ccc3cc(C)ccc3[n+]2C)c1C
inactive: dose: 0.5 mg/kg/injection, schedule: Q01DX001 (ip), vehicle: carboxymethylcellulose (CMC) 94 % of control | dose: 0.5 mg/kg/injection, schedule: Q01DX009 (ip), vehicle: saline sonified 116 % of control | dose: 0.5 mg/kg/injection, schedule: Q04DX003 (ip), vehicle: saline sonified 98 % of control | dose: 0.66 mg/kg/injection, schedule: Q01DX009 (ip), vehicle: saline 101 % of control | dose: 1.0 mg/kg/injection, schedule: Q01DX001 (ip), vehicle: carboxymethylcellulose (CMC) 97 % of control | dose: 1.0 mg/kg/injection, schedule: Q01DX009 (ip), vehicle: saline 100 % of control | dose: 1.0 mg/kg/injection, schedule: Q04DX003 (ip), vehicle: saline sonified 97 % of control | dose: 1.5 mg/kg/injection, schedule: Q01DX009 (ip), vehicle: saline 92 % of control | dose: 2.0 mg/kg/injection, schedule: Q01DX001 (ip), vehicle: carboxymethylcellulose (CMC) 97 % of control | dose: 2.0 mg/kg/injection, schedule: Q04DX003 (ip), vehicle: saline sonified 106 % of control

c1ccc2nc(CCC3CCCCN3)ccc2c1 (stereo not given)
inactive: dose: 333.0 mg/kg/injection, schedule: Q01DX Z (ip), vehicle: methylcellulose (MC) 101 % of control

CC(=O)N(C)c1ccc(NC(=O)c2c(Br)c(Br)c(Br)c(Br)c2C(=O)O)cc1
inactive: [1] 98 % of control | [2] 89 % of control | dose: 400.0 mg/kg/injection, schedule: Q01DX009 (ip), vehicle: Klucel (hydroxypropylcellulose) (HPC) 105 % of control

COC(=O)c1ccccc1NC(=O)Nc1ccccc1F
inactive: dose: 50.0 mg/kg/injection, schedule: Q01DX009 (ip), vehicle: Klucel (hydroxypropylcellulose) (HPC) 90 % of control | [1] 96 % of control | [2] 93 % of control

c1ccc(NN(CN(Nc2ccccc2)c2ccccc2)c2ccccc2)cc1
inactive: dose: 100.0 mg/kg/injection, schedule: Q01DX001 (ip), vehicle: other 95 % of control | dose: 400.0 mg/kg/injection, schedule: Q01DX001 (ip), vehicle: other 89 % of control

CCNC(=O)NC(=O)C(C)(C)Oc1ccc(Cl)cc1
inactive: dose: 50.0 mg/kg/injection, schedule: Q01DX009 (ip), vehicle: saline with Tween-80 103 % of control | dose: 100.0 mg/kg/injection, schedule: Q01DX009 (ip), vehicle: saline with Tween-80 92 % of control | dose: 200.0 mg/kg/injection, schedule: Q01DX009 (ip), vehicle: saline with Tween-80 96 % of control

CCOC(=O)NC(=S)[S][Sb]([S]C(=S)NC(=O)OCC)[S]c1nc2ccc(N=Nc3ccc(NS(=O)(=O)c4ccc(NC(=O)C(Sc5ncnc6nc[nH]c56)SC5N=C=Nc6nc[nH]c65)cc4)cc3)cc2s1 (stereo not given)
inactive: dose: 75.0 mg/kg/injection, schedule: Q04DX003 (ip), vehicle: saline 100 % of control | dose: 150.0 mg/kg/injection, schedule: Q04DX003 (ip), vehicle: saline 91 % of control | dose: 300.0 mg/kg/injection, schedule: Q04DX003 (ip), vehicle: saline 98 % of control

NC(=O)C1OC(n2cnc3c(N)ncnc32)C(O)C1O (stereo not given)
inactive: dose: 0.09 mg/kg/injection, schedule: Q01DX009 (ip), vehicle: saline 101 % of control | dose: 0.19 mg/kg/injection, schedule: Q01DX005 (ip), vehicle: saline 114 % of control | dose: 0.19 mg/kg/injection, schedule: Q01DX009 (ip), vehicle: saline 100 % of control | dose: 0.39 mg/kg/injection, schedule: Q01DX009 (ip), vehicle: saline 107 % of control | dose: 0.78 mg/kg/injection, schedule: Q01DX009 (ip), vehicle: saline 103 % of control | dose: 1.56 mg/kg/injection, schedule: Q01DX009 (ip), vehicle: saline 114 % of control

CCCC(C(=O)OCC)C(=O)c1ccccc1 (stereo not given)
inactive: [3] 95 % of control | [4] 98 % of control | [5] 92 % of control

O=C1CCCc2c1[nH]c1ccccc21
inactive: dose: 100.0 mg/kg/injection, schedule: Q04DX003 (ip), vehicle: saline with Tween-80 97 % of control | dose: 200.0 mg/kg/injection, schedule: Q04DX003 (ip), vehicle: saline with Tween-80 98 % of control | dose: 400.0 mg/kg/injection, schedule: Q04DX003 (ip), vehicle: saline with Tween-80 98 % of control

CN(C)C(=S)Oc1c(Cl)cc(Cl)cc1S(=O)(=O)F
inactive: [3] 104 % of control | [4] 98 % of control | [5] 98 % of control

Cc1cc(C)n(/N=C/c2c[nH]c3ccccc23)c(=O)c1C#N
inactive: [6] 97 % of control | [3] 97 % of control | [7] 97 % of control | [4] 94 % of control | [8] 96 % of control | [5] 97 % of control

O=C1CCS(=O)O1 (stereo not given)
inactive: [9] 100 % of control | [10] 95 % of control | [11] 89 % of control

[O-][N+](CCO)(CCO)Cc1ccccc1
inactive: dose: 50.0 mg/kg/injection, schedule: Q01DX001 (ip), vehicle: saline 103 % of control | [12] 103 % of control | [13] 103 % of control | [14] 101 % of control

CCOc1ccc(NC(C)=O)cc1CN(CCCl)CCBr
inactive: [6] 97 % of control | [7] 111 % of control | [8] 100 % of control

Cc1cn2nnnc2nc1-c1ccccc1O
inactive: [9] 98 % of control | [10] 91 % of control | [11] 94 % of control

Nc1nc(N)c(CCCOc2ccccc2)c(-c2ccccc2)n1
inactive: [9] 105 % of control | [10] 101 % of control | [11] 101 % of control

CNC(=O)OC1CCCCC1CN(C)C (stereo not given)
inactive: dose: 55.0 mg/kg/injection, schedule: Q01DX Z (ip), vehicle: saline 91 % of control | dose: 83.0 mg/kg/injection, schedule: Q01DX Z (ip), vehicle: saline 109 % of control | dose: 125.0 mg/kg/injection, schedule: Q01DX Z (ip), vehicle: saline 113 % of control

O=C(NCCCCCCCCCCCCNC(=O)Nc1ccc(C2=NCC(O)CN2)cc1)Nc1ccc(C2=NCC(O)CN2)cc1 (stereo not given)
inactive: dose: 62.5 mg/kg/injection, schedule: Q01DX Z (ip), vehicle: carboxymethylcellulose (CMC) 113 % of control | dose: 250.0 mg/kg/injection, schedule: Q01DX Z (ip), vehicle: carboxymethylcellulose (CMC) 122 % of control

CS(=O)(=O)SCc1ccc([N+](=O)[O-])cc1
inactive: dose: 15.0 mg/kg/injection, schedule: Q01DX001 (ip), vehicle: carboxymethylcellulose (CMC) 114 % of control | dose: 30.0 mg/kg/injection, schedule: Q01DX001 (ip), vehicle: carboxymethylcellulose (CMC) 101 % of control | dose: 60.0 mg/kg/injection, schedule: Q01DX001 (ip), vehicle: carboxymethylcellulose (CMC) 97 % of control

COC(=O)C(CC(C)C)NC(=O)C(Cc1ccccc1)NC(=O)C(CO)NC(=O)OCc1ccccc1 (stereo not drawn) (Cbz-Ser-Phe-Leu-OMe; configuration not given here)
inactive: [12] 93 % of control | [13] 93 % of control | [14] 94 % of control

O=C(c1ccccc1)c1ccc(O)c([N+](=O)[O-])c1
inactive: dose: 25.0 mg/kg/injection, schedule: Q04DX002 (ip), vehicle: Klucel (hydroxypropylcellulose) (HPC) 113 % of control | dose: 50.0 mg/kg/injection, schedule: Q04DX002 (ip), vehicle: Klucel (hydroxypropylcellulose) (HPC) 100 % of control | [9] 90 % of control

O=[N+]([O-])c1ccc(/C=N/c2nn[nH]n2)cc1 (tested in a mixture with another compound)
inactive: [15] 98 % of control | [16] 100 % of control | [17] 96 % of control

CC(=O)OCCNc1ccc([N+](=O)[O-])cc1[N+](=O)[O-]
inactive: dose: 100.0 mg/kg/injection, schedule: Q01DX009 (ip), vehicle: acetone 109 % of control | [15] 101 % of control | dose: 200.0 mg/kg/injection, schedule: Q01DX009 (ip), vehicle: acetone 97 % of control | [16] 103 % of control | dose: 400.0 mg/kg/injection, schedule: Q01DX009 (ip), vehicle: acetone 112 % of control | [17] 95 % of control
